From US5539119A, “Indole derivatives” (priority 1990, dated 1996)
Read-outs that look alike come from different tables or passages of the source.

What was measured:
δ opioid receptor [1] = molecular target: T1, δ opioid receptor (Cavia porcellus, UniProt A0A286XTF2); experiment: Bonding (binding) assay, guinea pig brain homogenate, DPDPE (hot) / DADLE (cold)
T1 construct: the homogenate of the brain of a guinea pig; from tissue; host or cells: guinea pig brain homogenate
Procedure: (§1) In the test for bonding, the homogenate of the brain of a guinea pig was diluted with Tris buffer in a ratio calculated to give to the produced solution a protein content of 0.7 mg per prot/tube was used as incorporated in the reaction solution. With regard to ligands for binding assay, 3H-DAGO (μ), DPDPE (δ), and EKC (κ) were used for hot samples and naloxone (μ), DADLE (δ), and naloxone (κ) for cold samples.

δ opioid receptor [2] = experiment: as above; conditions: μ/δ
Procedure: as §1

δ-receptor = molecular target: T2, δ-receptor (Mus musculus, UniProt P32300); experiment: Antagonism to DPDPE in Mouse Vas Deferens (MVD)
T2 construct: from tissue; host or cells: mouse vas deferens

μ opioid receptor = molecular target: T3, μ opioid receptor (Cavia porcellus, UniProt A0ACM8Q262); experiment: Bonding (binding) assay, guinea pig brain homogenate, 3H-DAGO (hot) / naloxone (cold); conditions: for Ki: guinea pig brain homogenate; for Ki ratio κ/μ: selectivity ratio
T3 construct: 3H-DAGO (DAMGO) radioligand, cold naloxone
Procedure: as §1

mouse T cells = experiment: Inhibiting proliferation of mouse T cells by Con-A stimulation ([3H]thymidine uptake, spleen cells); type: cell-based
Procedure: Now, the immunosuppressive activity of the compound 19 which is representative of the compounds of the present invention will be shown. Activity in inhibiting proliferation of mouse T cells by Con-A stimulation
A monocellular suspension was prepared by sterilely removing the spleen from a mouse and passing the spleen through a mesh. This suspension was adjusted to a concentration of 5×10^6 cells/ml and dispensed by the unit of 100 μl in all the individual wells of a 96-well plate. […] Eight hours before completion of the incubation, [^3 H]thymidine was added to the contents of the wells in a fixed ratio of 2 μCi/10 μl/well. Eight hours after this addition, the cells in the wells were collected on filter papers with the aid of a cell harvester. The cells on the filter papers were dried, then combined with a toluene type scintillator, and counted for the radioactivity of the [^3 H] thymidine occluded in the cells by means of a scintillation counter.
The ratio of suppression of T cell proliferation was calculated in accordance with the following formula:
Rate of suppression=(Radioactivity in the absence of compound-Radioactivityafter addition of compound)/(Radioactivity in the absence of compound-Radioactivity in the absence of ConA)

κ opioid receptor = molecular target: T4, κ opioid receptor (Cavia porcellus, UniProt P41144); experiment: Bonding (binding) assay, guinea pig brain homogenate, EKC (hot) / naloxone (cold)
T4 construct: the homogenate of the brain of a guinea pig; from tissue; host or cells: guinea pig brain homogenate
Procedure: as §1

[3] = tested on: Guinea Pig Ileal Longitudinal Muscle; experiment: GPI, shift of the compound's effect by naloxone or nor-BNI; design: GPI nor-BN1 Ke: unit not given here
Procedure: (§2) The test of the compounds of this invention for agonist and antagonist activities was carried out in according to the method proposed by Takemori et al. (Takemori, A, E. et al.: Eur. J. Pharmacal., 1982, 85, 163) using Guinea Pig Ileal Longitudinal Muscle Mouse Vas Deferens (MVD).

[4] = tested on: Guinea Pig Ileal Longitudinal Muscle; experiment: Agonist activity in Guinea Pig Ileal Longitudinal Muscle (GPI); conditions: guinea pig ileum
Procedure: as §2

Mouse Vas Deferens (MVD) = experiment: Agonist activity in Mouse Vas Deferens (MVD); conditions: read-out: MVD IC50
Procedure: as §2

[5] = MVD Antagonism to DPDPE at 100 nM, pA2, at 100 nM
[6] = Mus musculus, T-cell, ConA-stimulated mouse T cells, read-out: IC50, activity in inhibiting T cell hyperplasia (Table 3)
[7] = MVD Antagonism to DPDPE, pA2, (20 nM)
[8] = MVD Antagonism to DPDPE, pA2, (50 nM)
[9] = guinea pig brain homogenate, read-out: Bonding assay Ki value δ
[10] = Mus musculus, T-cell, 48 h, read-out: Ratio of suppression of T cell proliferation

T4 sequence (P41144 whole entry): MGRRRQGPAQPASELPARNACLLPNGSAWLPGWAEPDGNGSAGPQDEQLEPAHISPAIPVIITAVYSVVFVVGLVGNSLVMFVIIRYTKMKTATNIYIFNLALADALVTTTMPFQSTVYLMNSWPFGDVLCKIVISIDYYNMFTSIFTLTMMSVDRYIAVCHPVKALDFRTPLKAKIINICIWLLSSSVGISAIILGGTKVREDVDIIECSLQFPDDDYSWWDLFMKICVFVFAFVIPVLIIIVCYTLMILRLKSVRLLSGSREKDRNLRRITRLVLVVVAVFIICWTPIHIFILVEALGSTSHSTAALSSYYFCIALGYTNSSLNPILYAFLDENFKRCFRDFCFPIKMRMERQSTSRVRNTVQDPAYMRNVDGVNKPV
T2 sequence (P32300 whole entry): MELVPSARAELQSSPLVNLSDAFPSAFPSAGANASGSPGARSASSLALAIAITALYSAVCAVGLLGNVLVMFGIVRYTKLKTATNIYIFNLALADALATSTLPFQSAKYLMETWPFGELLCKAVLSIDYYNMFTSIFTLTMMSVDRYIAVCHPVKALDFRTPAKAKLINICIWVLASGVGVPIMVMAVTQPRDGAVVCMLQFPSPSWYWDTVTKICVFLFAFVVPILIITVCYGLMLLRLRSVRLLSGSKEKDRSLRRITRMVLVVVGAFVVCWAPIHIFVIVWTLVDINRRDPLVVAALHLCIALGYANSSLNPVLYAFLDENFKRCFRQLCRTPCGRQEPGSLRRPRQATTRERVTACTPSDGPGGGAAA
T3 sequence (A0ACM8Q262 1-400): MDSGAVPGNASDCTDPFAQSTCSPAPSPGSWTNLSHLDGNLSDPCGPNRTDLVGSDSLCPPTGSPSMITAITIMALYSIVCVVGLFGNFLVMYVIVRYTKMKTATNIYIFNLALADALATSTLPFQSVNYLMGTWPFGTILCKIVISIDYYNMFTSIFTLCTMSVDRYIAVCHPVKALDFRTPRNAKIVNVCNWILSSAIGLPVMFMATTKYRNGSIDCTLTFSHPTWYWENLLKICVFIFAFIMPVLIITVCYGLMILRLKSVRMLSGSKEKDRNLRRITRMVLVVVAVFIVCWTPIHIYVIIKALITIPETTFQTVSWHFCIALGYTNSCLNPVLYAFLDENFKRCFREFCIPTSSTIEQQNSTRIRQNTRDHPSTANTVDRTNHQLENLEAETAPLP
T1 sequence (A0A286XTF2 1-366): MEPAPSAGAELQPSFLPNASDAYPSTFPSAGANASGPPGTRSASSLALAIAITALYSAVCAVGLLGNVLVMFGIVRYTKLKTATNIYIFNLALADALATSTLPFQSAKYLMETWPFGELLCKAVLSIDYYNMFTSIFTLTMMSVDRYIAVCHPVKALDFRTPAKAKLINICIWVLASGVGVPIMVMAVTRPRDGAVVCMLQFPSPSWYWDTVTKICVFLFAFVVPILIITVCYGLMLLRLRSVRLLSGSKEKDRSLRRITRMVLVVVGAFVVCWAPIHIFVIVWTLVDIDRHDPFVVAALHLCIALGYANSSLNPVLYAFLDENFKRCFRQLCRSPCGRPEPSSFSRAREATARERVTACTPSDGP

SMILES | Ki (δ opioid receptor [1]) [nM] | Ki ratio μ/δ (δ opioid receptor [2]) | Ki ratio μ/δ (δ opioid receptor [2]; selectivity ratio) | Ki (μ opioid receptor) [nM] | Ki ratio κ/μ (μ opioid receptor) | IC50 (mouse T cells; [6]) [µg/mL] | Ki (κ opioid receptor) [nM] | GPI naloxone DR [3] | GPI nor-BN1 DR [3] | IC50 [4] [nM] | MVD Antagonism to DPDPE, DR (δ-receptor; (20 nM)) | MVD Antagonism to DPDPE, DR (δ-receptor; (50 nM)) | Kb (δ-receptor; [7]) [nM] | Kb (δ-receptor; [8]) [nM] | GPI nor-BN1 Ke [3] | GPI nor-BN1 pA2 [3] | also measured
Oc1cccc([C@]23CCN(CC4CC4)C[C@@H]2Cc2c([nH]c4ccc(F)cc24)C3)c1 (relative stereo) [Compound 37, 2-Cyclopropylmethyl-4aα-(3-hydroxyphenyl)-9-fluoro-1,2,3,4,4a,5,11,11aβ-octahydro-6H-indolo[2,3-g]isoquinoline] | 6.94 | 49.3 | 223 | 1550 | 0.22 | 1.9 | 342 | 1.19 | 1.26 | 10500 | – | – | – | – | – | – | Kb (δ-receptor; [5]): 6.31 nM; MVD Antagonism to DPDPE at 100 nM, DR (δ-receptor; at 100 nM): 8.93
Oc1cccc([C@]23CCN(CC4CC4)C[C@]2(O)Cc2c([nH]c4ccccc24)C3)c1 (relative stereo) [Compound 56] | 1.71 | 906 | 423 | 723 | 2.14 | 14 | 1550 | – | – | – | – | – | – | – | – | – | –
Cn1c2c(c3ccccc31)C[C@H]1CN(CC3CC3)CC[C@]1(c1cccc(O)c1)C2 (relative stereo) [Compound 25, 2-Cyclopropylmethyl-4aα-(3-hydroxyphenyl)-1,2,3,4,4a,5,11,11aβ-octahydro-6-methyl-indolo[2,3-g]isoquinoline] | 2.77 | 52.0 | 552 | 1530 | 0.09 | 3 | 144 | 0.55 | 0.77 | 14500 | – | – | – | – | – | – | –
Oc1cccc([C@]23CCN(CC4CC4)C[C@@H]2Cc2c([nH]c4ccccc24)C3)c1 (single isomer, unassigned) [Compound 47, (+)-2-Cyclopropylmethyl-4aα-(3-hydroxyphenyl)-1,2,3,4,4a,5,11,11aβ-octahydro-6H-indolo[2,3-g]isoquinoline] | 0.37 | – | – | 1170 | – | 3.8 | 388 | 1.06 | 1.29 | 64500 | 4.44 | 30.5 | 5.75 | 1.7 | – | – | –
Oc1cccc([C@]23CCN(CC4CC4)C[C@@H]2Cc2c([nH]c4c(Cl)cccc24)C3)c1 (relative stereo) [Compound 40, 2-Cyclopropylmethyl-4aα-(3-hydroxyphenyl)-7-chloro-1,2,3,4,4a,5,11,11aβ-octahydro-6H-indolo[2,3-g]isoquinoline] | 8.31 | 113 | 199 | 1650 | 0.57 | 2.6 | 936 | 2.17 | 2.05 | 11700 | 3.02 | 18.5 | 10 | 2.88 | 19.0 | 7.72 | –
CN1CC[C@]2(c3cccc(O)c3)Cc3[nH]c4ccc(Br)cc4c3C[C@H]2C1 (relative stereo) [Compound 10, 2-Methyl-4aα-(3-hydroxyphenyl)-9-bromo-1,2,3,4,4a,5,11,11aβ-octahydro-6H-indolo[2,3-g]isoquinoline] | – | – | – | – | – | – | – | 0.92 | 1.31 | 14300 | – | – | – | – | 64.5 | 7.19 | Ki (δ opioid receptor [1]; [9]): 1390 nM; IC50 (Mouse Vas Deferens (MVD)): 21900 nM
Oc1cccc([C@]23CCN(CC4CC4)C[C@@H]2Cc2c([nH]c4c(F)cccc24)C3)c1 (relative stereo) [Compound 29, 2-Cyclopropylmethyl-4aα-(3-hydroxyphenyl)-7-fluoro-1,2,3,4,4a,5,11,11aβ-octahydro-6H-indolo[2,3-g]isoquinoline] | 1.91 | 194 | 618 | 1180 | 0.31 | 0.9 | 370 | 2.50 | 2.06 | 6640 | 6.22 | 34.1 | 3.89 | 1.51 | 18.9 | 7.72 | –
C=CCN1CC[C@]2(c3cccc(O)c3)Cc3[nH]c4ccccc4c3C[C@H]2C1 (relative stereo) [Compound 31, 2-Allyl-4aα-(3-hydroxyphenyl)-1,2,3,4,4a,5,11,11aβ-octahydro-6H-indolo[2,3-g]isoquinoline] | 2.97 | 754 | > 9090 | 27000 | 0.09 | 2.6 | 2240 | 0.93 | 0.98 | 20500 | – | – | – | – | – | – | Kb (δ-receptor; [5]): 12.9 nM; MVD Antagonism to DPDPE at 100 nM, DR (δ-receptor; at 100 nM): 4.84
Oc1ccc2c3c1O[C@H]1c4[nH]c5ccccc5c4C[C@@]4(O)[C@@H](C2)N(CC2CC2)CC[C@]314 [NTI, nartol indole, reference compound] | – | – | 100 | – | – | – | – | – | – | – | – | – | – | – | – | – | inhibition at 0.1 µg/mL (mouse T cells; [10]): 0%; inhibition at 0.5 µg/mL (mouse T cells; [10]): 0%; inhibition at 0.75 µg/mL (mouse T cells; [10]): 0%; inhibition at 1 µg/mL (mouse T cells; [10]): 0%; inhibition at 2.5 µg/mL (mouse T cells; [10]): 0%; inhibition at 5 µg/mL (mouse T cells; [10]): 15%; inhibition at 7.5 µg/mL (mouse T cells; [10]): 35%; inhibition at 10 µg/mL (mouse T cells; [10]): 62%; inhibition at 12.5 µg/mL (mouse T cells; [10]): 85%; inhibition at 15 µg/mL (mouse T cells; [10]): 98%; inhibition at 17.5 µg/mL (mouse T cells; [10]): 100%; inhibition at 20 µg/mL (mouse T cells; [10]): 100%; IC50 (mouse T cells; Mus musculus, T-cell, read-out: IC50 value, immunosuppression (text to Table 2)): 8.6 µg/mL
Oc1cccc([C@]23CCN(CC4CC4)C[C@@H]2Cc2c([nH]c4ccccc24)C3)c1 (single isomer, unassigned) [Compound 52, (-)-2-Cyclopropylmethyl-4aα-(3-hydroxyphenyl)-1,2,3,4,4a,5,11,11aβ-octahydro-6H-indolo[2,3-g]isoquinoline] | – | – | – | 81100 | – | – | 2280 | 1.06 | 1.03 | 16400 | – | – | – | – | – | – | Ki (δ opioid receptor [1]; [9]): 135 nM; Kb (δ-receptor; at 100 nM): 158 nM; MVD Antagonism to DPDPE at 100 nM, Ke (δ-receptor; at 100 nM): 158; IC50, activity in inhibiting T cell hyperplasia (Table 3) (mouse T cells; ConA-stimulated mouse T cells): 3.5 µg/mL
